This experiment has as its target T1, Amine oxidase [flavin-containing] A (Homo sapiens, UniProt P21397).
T1 sequence (P21397 whole entry): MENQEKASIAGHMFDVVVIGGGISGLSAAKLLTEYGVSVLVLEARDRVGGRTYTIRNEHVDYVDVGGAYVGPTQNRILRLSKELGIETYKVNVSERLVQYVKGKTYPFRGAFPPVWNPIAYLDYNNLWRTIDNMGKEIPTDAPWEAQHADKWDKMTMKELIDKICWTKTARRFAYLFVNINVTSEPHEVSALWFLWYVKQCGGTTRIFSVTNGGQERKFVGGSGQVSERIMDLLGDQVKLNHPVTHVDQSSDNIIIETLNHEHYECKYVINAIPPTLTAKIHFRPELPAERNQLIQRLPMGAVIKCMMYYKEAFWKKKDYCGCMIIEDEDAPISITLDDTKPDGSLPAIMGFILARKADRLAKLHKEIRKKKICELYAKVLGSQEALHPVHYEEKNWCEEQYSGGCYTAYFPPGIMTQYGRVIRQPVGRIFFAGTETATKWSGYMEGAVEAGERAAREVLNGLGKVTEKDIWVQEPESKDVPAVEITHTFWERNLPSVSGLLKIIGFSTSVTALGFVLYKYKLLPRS
In words: […].

This passage reports Ki results from BindingDB's records for doi:10.1016/j.bmcl.2011.02.072 (Bharati Vidyapeeth Deemed University, 2011).

By Ki is commonly meant a measure of affinity in units of concentration, obtained from inhibition or displacement. Read a high Ki as weaker binding.

In turn, `Cn1cccc1C(=O)[C@H](c1ccccc1)N1CCCC1` [1-(1-Methyl-1H-pyrrol-2-yl)-2-phenyl-2-pyrrolidin-1-yl-ethanone (+)-S] had a Ki of 9.51 nM.
The compound `Cn1cccc1C(=O)[C@@H](c1ccccc1)N1CCCC1` [1-(1-Methyl-1H-pyrrol-2-yl)-2-phenyl-2-pyrrolidin-1-yl-ethanone (-)-R] yielded a Ki of 3.5 nM.
